Holding throughout (format): in vivo, C57BL/6N/CriBgi mice
One assay concerns malic enzyme (ME). Briefly: ME activity in adipose tissue. As to conditions: high fat diet, 6 weeks. From the text: (§1) Test diets were as follows: “normal diet group”=AIN-76 semisynthetic diet of Teklad (Madison, Wl, USA); “high fat diet group”=normal diet+10% of corn oil and 10% of lard; “test group I”=high fat diet+fucoxanthin extract of Example 1 (fucoxanthin content=0.05%); “test group II”=high fat diet+fucoxanthin extract of Example 1 (fucoxanthin content=0.2%); “test group III”=high fat diet+fucoxanthin extract of Example 2 (fucoxanthin content=0.05%); “test group IV”=high fat diet+fucoxanthin extract of Example 2 (fucoxanthin content=0.2%). The 6 diets (normal diet, high fat diet, and test I, II, III and IV) were given to the animals for 6 weeks. Diet intake was recorded every day, and body weight was measured once a week.
(§2) The supernatant was centrifuged again at 12,000×g for 15 minutes. Then, the supernatant was subjected to high-speed centrifuging (Beckman, Optima TLX-120, USA) at 100,000×g for 1 hour. Then, change of the activity of enzymes involved in the synthesis of fatty acid—fatty acid synthase (FAS), glucose-6-phosphate dehydrogenase (G6PD) and malic enzyme (ME)—was measured.
The ME enzyme is also an enzyme that supplied reducing energy required for the synthesis of fatty acid. […] ME activity was determined as follows. […] After 2 minutes of reaction at 27° C., absorbance was measured at 340 nm. ME activity was calculated as nmol of NADPH produced per 1 mg of protein in cell per minute.

Assay [1] is described as follows: Triglyceride and cholesterol level in liver tissue. As to conditions: high fat diet, 6 weeks. The procedure: Seventy (70) 4-week-old male C57BL/6N/CriBgi mice weighing 14 g were purchased from Orient, and reared in separate cages maintained at 24° C. and relative humidity of 55%, providing light from 08:00 until 20:00. The mice were accustomed while providing a pellet type diet for a week. The mice, which weighed 18.5-18.7 g, were grouped into seven groups by the randomized block design. Each group was given a different diet, as follows.
as §1

Assay [2] has as its system fatty acid synthase (FAS). Briefly: FAS activity in adipose tissue. As to conditions: high fat diet, 6 weeks.
Description: as §1, §2
Specifically, FAS activity was determined as follows. […] After 10 minutes of reaction at 30° C., decrease of absorbance was measured. FAS activity was calculated as nmol of NADPH oxidized per 1 mg of protein in cell per minute.

The subject of assay [3] is glucose-6-phosphate dehydrogenase (G6PD). The experiment in a line: G6PD activity in liver tissue. Conditions: high fat diet, 6 weeks.
Description: as §1, §2
The G6PD enzyme is an enzyme that supplied reducing energy required for the synthesis of fatty acid. […] G6PD activity was measured at 340 nm by the degree of reduction of NADP^+ to NADPH by G6PD. […] G6PD activity was calculated as nmol of NADPH produced per 1 mg of protein in cell per minute.

Assay [4] concerns lipoprotein lipase (LPL) mRNA. Briefly: Expression of mRNA for LPL in liver tissue (real-time PCR). (In general: Quantitative PCR measures a nucleic acid by following its amplification.)
The next assay deals with ME mRNA. The experiment in a line: Expression of mRNA for ME in adipose tissue (real-time PCR). As to conditions: normal diet = 1.00, GAPDH internal marker.
Description: as §1
(§3) 5 mL of Trizol was added to 0.5 g of white adipose tissue. After pulverizing in liquid nitrogen using a mortar, the tissue was added to 1 mL of chloroform. […] The isolated RNA was diluted and absorbance was measured at 260 nm using a UV spectrometer. […]
(§4) Thus prepared cDNA was […] 10-fold, and primers for analyzing the expression of the respective genes (CPT, β-oxidation, FAS, ME and G6PD) were obtained from Genotech (Daejeon, Korea). […] Fluorescence signals were monitored for each cycle and threshold cycle (Cr) was analyzed for quantitative analysis of mRNA for the test groups (Applied Biosystems, SDS7000) (Livak, 2001). […]

The subject of a further assay is β-oxidase mRNA. The experiment in a line: Expression of mRNA for β-oxidation in adipose tissue (real-time PCR). Conditions: normal diet = 1.00, GAPDH internal marker.
Description: as §1, §3, §4

Setting [5] is: fucoxanthin content 0.05% (Test I/III).
[6] abbreviates: fucoxanthin content 0.2% (Test II/IV).

Marks after values point to notes of the source that are not given here.

In the case of `CC(=O)O[C@H]1CC(C)(C)C(=C=C/C(C)=C/C=C/C(C)=C/C=C/C=C(C)/C=C/C=C(\C)C(=O)C[C@@]23O[C@]2(C)C[C@@H](O)CC3(C)C)[C@](C)(O)C1` [highly pure fucoxanthin, Fucoxanthin], the ME activity was 0.92 ± 0.14^a mmol/min/mg protein with malic enzyme (ME) (setting [5]) and 0.94 ± 0.11^a mmol/min/mg protein in the assay on malic enzyme (ME) (setting [6]). The “Triglyceride level in liver tissue” value in assay [1] (setting [5]) is recorded as 0.14 ± 0.01^c mmol/g liver; in assay [1] (setting [6]) it was 0.17 ± 0.02^b mmol/g liver. In addition, the FAS activity in assay [2] (setting [5]) was 90.55 ± 9.66^a mmol/min/mg protein; in assay [2] (setting [6]), 74.26 ± 6.38^a mmol/min/mg protein. In addition, the results for the G6PD activity in assay [3] (setting [5]) and in assay [3] (setting [6]) were 51.53 ± 4.31^a mmol/min/mg protein and 50.51 ± 3.74^a mmol/min/mg protein, respectively. Moreover, the “Expression of mRNA, LPL” value is recorded as 2.11 ± 0.09^b in assay [4] (normal diet = 1.00, fucoxanthin content 0.05% (Test I/III)) and 1.20 ± 0.14^a in assay [4] (normal diet = 1.00, fucoxanthin content 0.2% (Test II/IV)). Also, the “Expression of mRNA, ME” value in the assay with ME mRNA (setting [5]) is reported as 0.70 ± 0.07^ab; in the assay on ME mRNA (setting [6]), 0.52 ± 0.06^a. Also, the results for the “Expression of mRNA, β-Oxidation” value in the assay with β-oxidase mRNA (setting [5]) and with β-oxidase mRNA (setting [6]) were 1.41 ± 0.50^b and 1.26 ± 0.24^b, respectively.

(Values after patent US20100210722A1, “COMPOSITION FOR PREVENTING OR TREATING LIPID METABOLIC DISORDERS COMPRISING FUCOXANTHIN OR MARINE PLANT EXTRACT CONTAINING SAME” (AMICOGEN, INC., priority 2007, published 2010).)
